Laboratory results from PubChem BioAssay AID1963838 (Molecular Pharmacology Branch, DTP, NCI, 2024).

System: 855422-203-R-J1-PDC complex spheroid viability
Assay: Anticancer human tumor 855422-203-R-J1-PDC patient-derived bladder carcinoma cell line growth inhibition [POLQ]
Conditions: for IC50: curve of first compound; for viability, T/C: stronger effect = lower value
Method in brief: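 PDC + HUVEC + MSC complex spheroids; POLQ inhibitors ± partner drugs; top conc. at/near clinical Cmax, else 10 microM (SN-38 1 microM), half-log dilutions; 37 degrees C, 5% CO2.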

[1] = second compound 0.0316 µM, first compound 0.0316 µM
[2] = second compound 0.0316 µM, first compound 0.1 µM
[3] = second compound 0.0316 µM, first compound 0.316 µM
[4] = second compound 0.0316 µM, first compound 1 µM
[5] = second compound 0.0316 µM, first compound 3.16 µM
[6] = second compound 0.0316 µM, first compound 10 µM
[7] = second compound 0.1 µM, first compound 0.0316 µM
[8] = second compound 0.1 µM, first compound 0.1 µM
[9] = second compound 0.1 µM, first compound 0.316 µM
[10] = second compound 0.1 µM, first compound 1 µM
[11] = second compound 0.1 µM, first compound 3.16 µM
[12] = second compound 0.1 µM, first compound 10 µM
[13] = second compound 0.316 µM, first compound 0.0316 µM
[14] = second compound 0.316 µM, first compound 0.1 µM
[15] = second compound 0.316 µM, first compound 0.316 µM
[16] = second compound 0.316 µM, first compound 1 µM
[17] = second compound 0.316 µM, first compound 3.16 µM
[18] = second compound 0.316 µM, first compound 10 µM
[19] = second compound 1 µM, first compound 0.0316 µM
[20] = second compound 1 µM, first compound 0.1 µM
[21] = second compound 1 µM, first compound 0.316 µM
[22] = second compound 1 µM, first compound 1 µM
[23] = second compound 1 µM, first compound 3.16 µM
[24] = second compound 1 µM, first compound 10 µM
[25] = second compound 3.16 µM, first compound 0.0316 µM
[26] = second compound 3.16 µM, first compound 0.1 µM
[27] = second compound 3.16 µM, first compound 0.316 µM
[28] = second compound 3.16 µM, first compound 1 µM
[29] = second compound 3.16 µM, first compound 3.16 µM
[30] = second compound 3.16 µM, first compound 10 µM
[31] = second compound 10 µM, first compound 0.0316 µM
[32] = second compound 10 µM, first compound 0.1 µM
[33] = second compound 10 µM, first compound 0.316 µM
[34] = second compound 10 µM, first compound 1 µM
[35] = second compound 10 µM, first compound 3.16 µM
[36] = second compound 10 µM, first compound 10 µM
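Also: spheroids exposed to compounds for seven days before readout.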

Structure (SMILES): CC(C)n1c(=O)n(C)c2cnc3cc(F)c(-c4ccc(OCCCN5CCCCC5)nc4)cc3c21 + COC1C(OC(N)=O)C(O)C(Oc2ccc3c(O)c(NC(=O)c4ccc(O)c(CC=C(C)C)c4)c(=O)oc3c2C)OC1(C)C
- IC50 (second compound 0.0316 µM): > 10000 nM
- IC50 (second compound 0.1 µM): > 10000 nM
- IC50 (second compound 0.316 µM): > 10000 nM
- IC50 (second compound 1 µM): > 10000 nM
- IC50 (second compound 3.16 µM): > 10000 nM
- IC50 (second compound 10 µM): > 10000 nM
- viability, T/C [1]: 97.6%
- viability, T/C [2]: 92.7%
- viability, T/C [3]: 89.8%
- viability, T/C [4]: 89.1%
- viability, T/C [5]: 84.7%
- viability, T/C [6]: 70.3%
- viability, T/C [7]: 84.4%
- viability, T/C [8]: 110%
- viability, T/C [9]: 88.1%
- viability, T/C [10]: 91.9%
- viability, T/C [11]: 79.6%
- viability, T/C [12]: 75.3%
- viability, T/C [13]: 92.6%
- viability, T/C [14]: 100%
- viability, T/C [15]: 89.8%
- viability, T/C [16]: 102%
- viability, T/C [17]: 87.8%
- viability, T/C [18]: 65.9%
- viability, T/C [19]: 104%
- viability, T/C [20]: 104%
- viability, T/C [21]: 96.2%
- viability, T/C [22]: 98.1%
- viability, T/C [23]: 81.2%
- viability, T/C [24]: 74%
- viability, T/C [25]: 106%
- viability, T/C [26]: 95%
- viability, T/C [27]: 98.2%
- viability, T/C [28]: 79.1%
- viability, T/C [29]: 83.5%
- viability, T/C [30]: 69.7%
- viability, T/C [31]: 104%
- viability, T/C [32]: 92.5%
- viability, T/C [33]: 93.9%
- viability, T/C [34]: 98.1%
- viability, T/C [35]: 83%
- viability, T/C [36]: 68.7%

Structure (SMILES): CC1COCCN1c1cc(C2(S(C)(=N)=O)CC2)nc(-c2ccnc3[nH]ccc23)n1 (centres undefined) + COC1C(OC(N)=O)C(O)C(Oc2ccc3c(O)c(NC(=O)c4ccc(O)c(CC=C(C)C)c4)c(=O)oc3c2C)OC1(C)C
- IC50 (second compound 0.0316 µM): 2450 nM
- IC50 (second compound 0.1 µM): 2390 nM
- IC50 (second compound 0.316 µM): 2650 nM
- IC50 (second compound 1 µM): 2710 nM
- IC50 (second compound 3.16 µM): 2590 nM
- IC50 (second compound 10 µM): 2300 nM
- viability, T/C [1]: 110%
- viability, T/C [2]: 118%
- viability, T/C [3]: 122%
- viability, T/C [4]: 97.5%
- viability, T/C [5]: 36.7%
- viability, T/C [6]: 12%
- viability, T/C [7]: 100%
- viability, T/C [8]: 99.2%
- viability, T/C [9]: 118%
- viability, T/C [10]: 111%
- viability, T/C [11]: 31.6%
- viability, T/C [12]: 12.8%
- viability, T/C [13]: 110%
- viability, T/C [14]: 103%
- viability, T/C [15]: 117%
- viability, T/C [16]: 111%
- viability, T/C [17]: 39%
- viability, T/C [18]: 11.1%
- viability, T/C [19]: 113%
- viability, T/C [20]: 112%
- viability, T/C [21]: 126%
- viability, T/C [22]: 118%
- viability, T/C [23]: 39.5%
- viability, T/C [24]: 10.5%
- viability, T/C [25]: 125%
- viability, T/C [26]: 106%
- viability, T/C [27]: 116%
- viability, T/C [28]: 112%
- viability, T/C [29]: 37.1%
- viability, T/C [30]: 12.3%
- viability, T/C [31]: 114%
- viability, T/C [32]: 103%
- viability, T/C [33]: 111%
- viability, T/C [34]: 99.9%
- viability, T/C [35]: 30.8%
- viability, T/C [36]: 10.7%
